Test results from US12616740B2, “Methods of using a GIP/GLP1 co-agonist for therapy” (ELI LILLY AND COMPANY, priority 2018, dated 2026).

Key:
[1] = NCT03131687: weight loss at Week 26; format: in vivo, human
Method: Clinical Study (NCT03131687) Supporting Maintenance Dose Embodiments A 6-month (26-week) Phase 2 double-blind clinical study is designed to evaluate the safety, efficacy, and PK/PD of 4 dose levels (1 mg, 5 mg, 10 mg and 15 mg respectively) of tirzepatide once weekly by subcutaneous injection compared with dulaglutide 1.5 mg. once weekly (QW) and placebo QW in patients with T2DM who have inadequate glycemic control with diet and exercise with or without a stable dose of metformin. Tirzepatide dose is up-titrated to the maintenance dose using the following weekly dose increments:
The study also has a 4-week follow up period. In addition to safety and efficacy for treating T2DM, efficacy endpoints include the effect of tirzepatide on HbA1c, FBG, body weight, lipids, and waist circumference compared with placebo and with dulaglutide 1.5 mg. The study also evaluates the effect of tirzepatide on GI tolerability, hypoglycemia, hypersensitivity reactions, and pancreatic safety, as well as the development of treatment-emergent anti-drug antibodies. Model-based dose response analyses are performed to predict potential for significant HbA1c lowering and weight loss in longer studies. Statistical Analyses: Efficacy: The primary efficacy outcome of HbA1c change from baseline to the 26-week endpoint is analyzed using a Bayesian dose-response model. Analyses are performed on the intention to treat population (mITT) analysis set. Supportive analysis of the primary efficacy outcome for the mITT dataset are the model for post-baseline measures (MMRM) with body mass index (BMI) (<30 kg/m^2, ≥30 kg/m^2), metformin use, treatment, visit, and treatment-by-visit interaction as fixed effects, baseline HbA1c as a covariate, and patient as a random effect. The mean weight change from baseline at 12 and 26 weeks, along with the mean change from baseline of HbA1c at 12 weeks, is analyzed using similar dose-response models as the primary analyses. The percentages of patients with ≥5% or ≥10% body weight loss, reaching the HbA1c target of ≤6.5% or ≤7.0% at 26 weeks, or requiring rescue therapy are analyzed using logistic regression with fixed effects of treatment and strata, and baseline as a covariate. The changes from baseline in FBG (fasting blood glucose), SMBG (self-monitored blood glucose) levels, waist circumference, and mean percentage change in lipids from baseline to 12 and 26 weeks are analyzed using a similar MMRM to the one used for the primary analyses. Table Abbreviations: Dula 1.5 mg=dulaglutide 1.5 mg once weekly; LY means tirzepatide, and LY 1 mg=tirzepatide 1 mg once weekly; LY 5 mg=5 mg once weekly; LY 10 mg=escalation dose group tirzepatide once weekly with highest dose of 10 mg; LY 15 mg=escalation dose group of tirzepatide once weekly with highest dose 15 mg; LOCF=last observation-carried-forward; N=number of patients; pbo=placebo; Week 26=mITT on-treatment data at Week 26 excluding data after study drug discontinuation or rescue drug initiation; mITT=modified intent-to-treat; SD=standard deviation. For Table 4, n=number of patients in the population with baseline and post-baseline value at the specified time point. For Table 6, LY10 mg=escalation dose group tirzepatide, once weekly with highest dose of 10 mg; escalation dose: (5 mg weeks 0 and 1), LY15 mg=escalation dose group tirzepatide, once weekly with highest dose of 15 mg; escalation dose: (5 mg weeks 0 and 1; 10 mg weeks 2 to 5); N=number of patients in specified group, m=number of patients who experienced new event during interval, FolUp=follow up, T/Wk=Time range, (week) and %=means percent patients spending at least some time in treatment group who experienced new event during interval. For Table 7, n is the number of patients with events meeting the criteria; N is number of patients in the population; % is percent of patients in treatment group experiencing the event.

[2] = NCT03311724: nausea, vomiting and diarrhea, new events per interval; format: in vivo, human; settings: LY12 mg Group 3 (tirzepatide 4 mg × 4, 8 mg × 4, 12 mg × 4 once weekly), N = 29
Source text: This is a 12-week treatment with a 1 week screening (Visit 1) followed by a 1 week lead-in (Visit 2), then 12 weeks of treatment (Visits 3-10, including telephone visits), then followed by 4-week safety follow-up. It is a Phase 2 study designed to examine the efficacy and tolerability of subcutaneously once-weekly tirzepatide compared with placebo in patients with type 2 diabetes who have inadequate glycemic control with diet and exercise alone or with a stable dose of metformin. The study was designed per below and conducted to refine the escalation scheme.

[3] = LY 1 mg = tirzepatide 1 mg once weekly, LOCF
[4] = LY 1 mg = tirzepatide 1 mg once weekly, second line, analysis set not given (not LOCF)
[5] = LY 5 mg = tirzepatide 5 mg once weekly, LOCF
[6] = LY 5 mg = tirzepatide 5 mg once weekly, second line, analysis set not given (not LOCF)
[7] = LY 10 mg = tirzepatide once weekly, highest dose 10 mg, LOCF
[8] = LY 10 mg = tirzepatide once weekly, highest dose 10 mg, second line, analysis set not given (not LOCF)
[9] = LY 15 mg = tirzepatide once weekly, highest dose 15 mg, LOCF
[10] = LY 15 mg = tirzepatide once weekly, highest dose 15 mg, second line, analysis set not given (not LOCF)

Substance: tirzepatide [LY]
- body weight change from baseline (in words) ([1]; 5 mg, 10 mg, and 15 mg doses of tirzepatide, significantly different from placebo and dulaglutide 1.5 mg): significantly decrease body weight from baseline
- % of Patients Achieving Weight loss ≥10% [1, 3]: 5.8%
- odds ratio vs. placebo, Weight loss ≥10% [1, 3]: 7.1
- % of Patients Achieving Weight loss ≥10% [1, 4]: 6.8%
- % of Patients Achieving Weight loss ≥15% [1, 4]: 0%
- odds ratio vs. placebo, Weight loss ≥10% [1, 4]: 6.7
- % of Patients Achieving Weight loss ≥10% [1, 5]: 16.4%
- odds ratio vs. placebo, Weight loss ≥10% [1, 5]: 20.8
- % of Patients Achieving Weight loss ≥10% [1, 6]: 16.7%
- % of Patients Achieving Weight loss ≥15% [1, 6]: 6.3%
- odds ratio vs. placebo, Weight loss ≥10% [1, 6]: 17.2
- % of Patients Achieving Weight loss ≥10% [1, 7]: 39.2%
- odds ratio vs. placebo, Weight loss ≥10% [1, 7]: 67.6
- % of Patients Achieving Weight loss ≥10% [1, 8]: 45.5%
- % of Patients Achieving Weight loss ≥15% [1, 8]: 25.0%
- odds ratio vs. placebo, Weight loss ≥10% [1, 8]: 71.7
- % of Patients Achieving Weight loss ≥10% [1, 9]: 37.7%
- odds ratio vs. placebo, Weight loss ≥10% [1, 9]: 66.2
- % of Patients Achieving Weight loss ≥10% [1, 10]: 54.3%
- % of Patients Achieving Weight loss ≥15% [1, 10]: 34.3%
- odds ratio vs. placebo, Weight loss ≥10% [1, 10]: 109.2
- Nausea Vomiting and Diarrhea: m, number of patients who experienced new event during interval ([2]; Follow-up): m = 1;
- Nausea Vomiting and Diarrhea: m, number of patients who experienced new event during interval ([2]; Overall): m = 14;
- Nausea Vomiting and Diarrhea: m, number of patients who experienced new event during interval ([2]; T/Wk 0): m = 9;
- Nausea Vomiting and Diarrhea: m, number of patients who experienced new event during interval ([2]; T/Wk 1): m = 5;
- Nausea Vomiting and Diarrhea: m, number of patients who experienced new event during interval ([2]; T/Wk 2): m = 1;
- Nausea Vomiting and Diarrhea: m, number of patients who experienced new event during interval ([2]; T/Wk 3): m = 3;
- Nausea Vomiting and Diarrhea: m, number of patients who experienced new event during interval ([2]; T/Wk 4): m = 3;
- Nausea Vomiting and Diarrhea: m, number of patients who experienced new event during interval ([2]; T/Wk 5): m = 0;
- Nausea Vomiting and Diarrhea: m, number of patients who experienced new event during interval ([2]; T/Wk 6): m = 2;
- Nausea Vomiting and Diarrhea: m, number of patients who experienced new event during interval ([2]; T/Wk 7): m = 1;
- Nausea Vomiting and Diarrhea: m, number of patients who experienced new event during interval ([2]; T/Wk 8): m = 4;
- Nausea Vomiting and Diarrhea: m, number of patients who experienced new event during interval ([2]; T/Wk 9): m = 1;
